Data published in ChEMBL document CHEMBL4346721, “Small molecule PROTACs in targeted therapy: An emerging strategy to induce protein degradation” (Eur J Med Chem, 2019).
One block for each compound: values may come before it.

Experiments:
[1] = target: Protein cereblon/Histone acetyltransferase KAT2B (Homo sapiens, UniProt Q92831+Q96SW2); experiment: Protac activity against E3 ubiquitin ligase/PCAF in human THP-1 cells assessed as induction of PCAF protein degradation; format: cell-based
[2] = target: Protein cereblon/Histone acetyltransferase KAT2A (Homo sapiens, UniProt Q92830+Q96SW2); experiment: Protac activity against E3 ubiquitin ligase/GCN5 in human THP-1 cells assessed as induction of GCN5 protein degradation; format: cell-based
[3] = target: T1, von Hippel-Lindau disease tumor suppressor/Androgen receptor (Homo sapiens, UniProt P10275+P40337); experiment: Protac activity against VHL/androgen receptor in human VCaP cells assessed as induction of androgen receptor protein degradation by Western blot analysis; format: cell-based
[4] = target: T1, von Hippel-Lindau disease tumor suppressor/Androgen receptor; experiment: Protac activity against VHL/androgen receptor in human VCaP cells assessed as induction of androgen receptor protein degradation by Western blot analysis relative to control; format: cell-based
[5] = target: Protein cereblon/Cyclin-dependent kinase 9 (Homo sapiens, UniProt P50750+Q96SW2); experiment: Protac activity against E3 ubiquitin ligase/CDK9 in human MCF7 cells assessed as induction of CDK9 protein degradation; format: cell-based
[6] = target: T2, von Hippel-Lindau disease tumor suppressor/Bromodomain-containing protein 2 (Homo sapiens, UniProt P25440+P40337); experiment: Protac activity against VHL/BRD2 in human 22Rvl cells assessed as induction of BRD2 protein degradation by reverse phase protein array analysis; format: cell-based
[7] = target: von Hippel-Lindau disease tumor suppressor/Myc proto-oncogene protein (Homo sapiens, UniProt P01106+P40337); experiment: Protac activity against VHL/c-Myc (unknown origin) assessed as induction of c-Myc protein degradation by cell based reverse phase protein array analysis
[8] = target: Protein cereblon/Tyrosine-protein kinase BTK (Homo sapiens, UniProt Q06187+Q96SW2); experiment: Protac activity at E3 ubiquitin ligase/BTK in human NAMALWA cells assessed as BTK degradation; format: cell-based
[9] = target: T3, von Hippel-Lindau disease tumor suppressor/Mitogen-activated protein kinase 14 (Homo sapiens, UniProt Q16539+P40337); experiment: Protac activity at E3 ubiquitin ligase/p38alpha (unknown origin) assessed as p38alpha degradation by cell based assay
[10] = target: T3, von Hippel-Lindau disease tumor suppressor/Mitogen-activated protein kinase 14; experiment: Protac activity at E3 ubiquitin ligase/p38alpha (unknown origin) assessed as p38alpha degradation by cell based assay relative to control
Target sequence in this assay (P40337 whole entry partner): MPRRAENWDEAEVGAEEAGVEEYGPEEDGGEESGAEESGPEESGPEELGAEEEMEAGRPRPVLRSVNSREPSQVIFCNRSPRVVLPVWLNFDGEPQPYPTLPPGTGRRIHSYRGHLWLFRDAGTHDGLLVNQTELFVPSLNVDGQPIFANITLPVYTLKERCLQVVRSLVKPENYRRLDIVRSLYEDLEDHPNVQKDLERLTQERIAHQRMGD
Target sequence in this assay (Q16539 2-360 limits assumed): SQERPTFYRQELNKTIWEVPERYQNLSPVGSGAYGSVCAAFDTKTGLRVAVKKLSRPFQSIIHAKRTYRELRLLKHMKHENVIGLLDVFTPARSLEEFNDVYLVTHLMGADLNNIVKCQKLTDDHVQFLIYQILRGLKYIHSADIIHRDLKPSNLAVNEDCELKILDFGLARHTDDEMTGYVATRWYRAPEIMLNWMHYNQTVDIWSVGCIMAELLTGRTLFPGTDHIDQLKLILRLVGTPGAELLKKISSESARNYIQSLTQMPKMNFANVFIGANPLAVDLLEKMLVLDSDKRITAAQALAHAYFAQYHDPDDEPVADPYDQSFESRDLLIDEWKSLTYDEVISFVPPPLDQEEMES

[11] = target: Estrogen receptor/E3 ubiquitin-protein ligase XIAP (Homo sapiens) (UniProt P03372+P98170); experiment: Protac activity against xiap/ERalpha in human MCF7 cells assessed as reduction in ERalpha protein level at 3 nM relative to control; format: cell-based; parameters: scale not given: the % may be the effect or the level left
[12] = target: von Hippel-Lindau disease tumor suppressor/Bromodomain-containing protein 4 (Homo sapiens, UniProt O60885+P40337); experiment: Protac activity against VHL/BRD4 (unknown origin) assessed as induction of BRD4 protein degradation by cell based assay
[13] = target: T2, von Hippel-Lindau disease tumor suppressor/Bromodomain-containing protein 2; experiment: Protac activity against VHL/BRD2 (unknown origin) assessed as […] protein degradation by cell based assay
[14] = target: von Hippel-Lindau disease tumor suppressor/Bromodomain-containing protein 3 (Homo sapiens, UniProt Q15059+P40337); experiment: Protac activity against VHL/BRD3 (unknown origin) assessed as […] protein degradation by cell based assay
[15] = target: T4, von Hippel-Lindau disease tumor suppressor/Receptor-interacting serine/threonine-protein kinase 2 (Homo sapiens, UniProt O43353+P40337); experiment: Protac activity against VHL/RIPK2 in human THP-1 cells assessed as induction of RIPK2 protein degradation at 10 nM relative to control; format: cell-based
[16] = target: T4, von Hippel-Lindau disease tumor suppressor/Receptor-interacting serine/threonine-protein kinase 2; experiment: Protac activity against VHL/RIPK2 in human THP-1 cells assessed as induction of RIPK2 protein degradation; format: cell-based
[17] = target: von Hippel-Lindau disease tumor suppressor (Homo sapiens, UniProt P40337); experiment: Binding affinity to VHL in human THP-1 cells; format: cell-based
[18] = target: T5, von Hippel-Lindau disease tumor suppressor/Mitogen-activated protein kinase 13 (Homo sapiens, UniProt O15264+P40337); experiment: Protac activity at E3 ubiquitin ligase/p38delta (unknown origin) assessed as p38delta degradation by cell based assay
[19] = target: T5, von Hippel-Lindau disease tumor suppressor/Mitogen-activated protein kinase 13; experiment: Protac activity at E3 ubiquitin ligase/p38delta (unknown origin) assessed as p38delta degradation by cell based assay relative to control
[20] = target: Protein cereblon/Peptidyl-prolyl cis-trans isomerase FKBP1A (Homo sapiens, UniProt P62942+Q96SW2); experiment: Protac activity against CRBN/FKBP12 (unknown origin) assessed as FKBP12 degradation by cell based assay

T2 sequence (P25440 whole entry): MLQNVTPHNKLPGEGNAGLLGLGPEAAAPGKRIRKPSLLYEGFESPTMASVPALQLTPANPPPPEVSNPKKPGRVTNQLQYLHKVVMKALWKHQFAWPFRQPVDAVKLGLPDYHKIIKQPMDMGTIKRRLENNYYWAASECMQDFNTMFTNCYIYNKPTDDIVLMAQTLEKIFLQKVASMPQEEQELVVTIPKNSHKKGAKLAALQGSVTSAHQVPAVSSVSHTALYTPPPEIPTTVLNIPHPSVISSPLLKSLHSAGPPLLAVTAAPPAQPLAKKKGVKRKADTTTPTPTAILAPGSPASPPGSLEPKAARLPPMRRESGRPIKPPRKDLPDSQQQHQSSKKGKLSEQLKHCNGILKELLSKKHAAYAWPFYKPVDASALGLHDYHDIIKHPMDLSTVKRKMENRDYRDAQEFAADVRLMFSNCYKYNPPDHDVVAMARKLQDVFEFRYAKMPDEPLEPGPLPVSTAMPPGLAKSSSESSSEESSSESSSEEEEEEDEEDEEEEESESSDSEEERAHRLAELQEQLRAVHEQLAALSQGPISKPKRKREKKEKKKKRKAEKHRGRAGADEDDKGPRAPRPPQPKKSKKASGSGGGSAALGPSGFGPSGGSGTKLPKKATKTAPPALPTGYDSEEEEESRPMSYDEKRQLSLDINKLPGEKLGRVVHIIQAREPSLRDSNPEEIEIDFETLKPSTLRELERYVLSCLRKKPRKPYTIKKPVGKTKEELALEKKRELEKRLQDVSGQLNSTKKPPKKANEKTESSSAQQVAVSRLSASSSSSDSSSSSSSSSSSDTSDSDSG
T2 sequence (P40337 whole entry): as the sequence (P40337 whole entry partner) above
Chain of Estrogen receptor/E3 ubiquitin-protein ligase XIAP (Homo sapiens) (P03372 whole entry, looked up): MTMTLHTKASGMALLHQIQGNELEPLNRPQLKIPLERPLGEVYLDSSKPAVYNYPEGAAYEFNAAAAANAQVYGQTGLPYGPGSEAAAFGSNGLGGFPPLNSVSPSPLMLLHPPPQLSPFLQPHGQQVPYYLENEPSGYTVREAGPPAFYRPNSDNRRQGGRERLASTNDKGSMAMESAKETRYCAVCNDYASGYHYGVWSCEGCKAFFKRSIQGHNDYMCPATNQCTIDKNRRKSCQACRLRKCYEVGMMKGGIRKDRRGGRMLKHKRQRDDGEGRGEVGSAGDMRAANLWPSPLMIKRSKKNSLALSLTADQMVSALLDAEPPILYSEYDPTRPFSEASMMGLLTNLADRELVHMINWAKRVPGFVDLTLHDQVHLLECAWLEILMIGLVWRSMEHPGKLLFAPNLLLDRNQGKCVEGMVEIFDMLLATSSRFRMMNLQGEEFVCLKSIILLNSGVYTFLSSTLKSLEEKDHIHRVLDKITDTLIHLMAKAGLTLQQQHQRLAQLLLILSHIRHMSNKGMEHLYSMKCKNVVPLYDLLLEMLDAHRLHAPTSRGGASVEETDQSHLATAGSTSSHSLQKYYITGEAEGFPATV
Chain of Estrogen receptor/E3 ubiquitin-protein ligase XIAP (Homo sapiens) (P98170 whole entry, looked up): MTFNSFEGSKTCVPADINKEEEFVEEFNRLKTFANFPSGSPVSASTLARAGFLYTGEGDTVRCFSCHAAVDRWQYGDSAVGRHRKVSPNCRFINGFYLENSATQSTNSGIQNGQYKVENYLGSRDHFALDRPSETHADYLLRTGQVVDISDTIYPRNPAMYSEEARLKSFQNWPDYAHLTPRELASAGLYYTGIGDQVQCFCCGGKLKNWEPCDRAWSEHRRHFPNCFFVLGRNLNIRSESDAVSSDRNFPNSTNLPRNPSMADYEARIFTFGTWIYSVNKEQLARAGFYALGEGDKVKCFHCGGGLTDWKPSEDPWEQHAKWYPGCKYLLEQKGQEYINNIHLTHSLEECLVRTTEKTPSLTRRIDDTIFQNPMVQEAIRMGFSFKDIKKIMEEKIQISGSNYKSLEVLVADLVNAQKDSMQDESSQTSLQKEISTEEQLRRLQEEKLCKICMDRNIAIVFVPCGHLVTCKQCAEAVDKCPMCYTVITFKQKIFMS
Chain of Protein cereblon/Tyrosine-protein kinase BTK (Q06187 whole entry): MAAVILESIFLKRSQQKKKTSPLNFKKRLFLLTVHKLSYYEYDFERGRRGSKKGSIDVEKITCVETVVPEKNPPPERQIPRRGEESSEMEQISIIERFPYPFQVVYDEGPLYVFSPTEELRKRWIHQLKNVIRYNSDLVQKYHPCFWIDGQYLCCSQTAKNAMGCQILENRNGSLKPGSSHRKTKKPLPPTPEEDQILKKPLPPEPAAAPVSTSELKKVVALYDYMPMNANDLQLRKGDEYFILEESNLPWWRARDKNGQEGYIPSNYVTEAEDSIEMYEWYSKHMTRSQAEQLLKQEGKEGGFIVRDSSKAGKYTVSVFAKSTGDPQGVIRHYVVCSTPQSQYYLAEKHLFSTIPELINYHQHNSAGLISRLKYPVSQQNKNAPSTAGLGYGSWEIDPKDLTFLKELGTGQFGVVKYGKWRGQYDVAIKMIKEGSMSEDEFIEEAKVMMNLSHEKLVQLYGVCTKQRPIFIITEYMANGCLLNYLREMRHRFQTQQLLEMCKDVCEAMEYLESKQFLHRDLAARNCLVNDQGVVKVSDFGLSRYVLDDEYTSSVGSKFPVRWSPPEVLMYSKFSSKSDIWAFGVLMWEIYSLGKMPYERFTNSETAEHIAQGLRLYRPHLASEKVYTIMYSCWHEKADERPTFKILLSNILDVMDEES
Chain of Protein cereblon/Tyrosine-protein kinase BTK (Q96SW2 whole entry): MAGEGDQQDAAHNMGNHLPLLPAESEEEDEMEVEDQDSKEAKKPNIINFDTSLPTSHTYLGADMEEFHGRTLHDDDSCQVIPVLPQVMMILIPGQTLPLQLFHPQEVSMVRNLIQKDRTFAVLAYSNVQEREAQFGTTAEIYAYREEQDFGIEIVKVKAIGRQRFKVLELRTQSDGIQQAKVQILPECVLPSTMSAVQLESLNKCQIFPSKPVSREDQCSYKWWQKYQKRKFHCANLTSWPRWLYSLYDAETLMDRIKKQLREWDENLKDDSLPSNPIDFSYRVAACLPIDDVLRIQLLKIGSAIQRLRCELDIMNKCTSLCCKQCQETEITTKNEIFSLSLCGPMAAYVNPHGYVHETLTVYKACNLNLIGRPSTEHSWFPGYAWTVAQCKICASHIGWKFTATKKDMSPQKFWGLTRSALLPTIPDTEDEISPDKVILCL
Chain of von Hippel-Lindau disease tumor suppressor/Myc proto-oncogene protein (P01106 whole entry): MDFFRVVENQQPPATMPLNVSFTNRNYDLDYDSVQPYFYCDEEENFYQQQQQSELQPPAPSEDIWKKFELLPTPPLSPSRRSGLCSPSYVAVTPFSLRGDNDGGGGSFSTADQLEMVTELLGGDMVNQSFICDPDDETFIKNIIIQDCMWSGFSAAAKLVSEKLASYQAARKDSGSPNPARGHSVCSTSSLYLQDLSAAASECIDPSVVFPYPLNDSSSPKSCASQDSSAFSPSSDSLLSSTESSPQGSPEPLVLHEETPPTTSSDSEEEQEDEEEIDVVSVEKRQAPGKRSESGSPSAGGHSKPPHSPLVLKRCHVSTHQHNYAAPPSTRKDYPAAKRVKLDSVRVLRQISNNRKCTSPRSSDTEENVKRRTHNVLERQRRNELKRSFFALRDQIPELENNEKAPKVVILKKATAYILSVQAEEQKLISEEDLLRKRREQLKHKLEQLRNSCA
Chain of von Hippel-Lindau disease tumor suppressor/Myc proto-oncogene protein (P40337 whole entry): as the sequence (P40337 whole entry partner) above
Chain of von Hippel-Lindau disease tumor suppressor (P40337 whole entry): as the sequence (P40337 whole entry partner) above
Chain of von Hippel-Lindau disease tumor suppressor/Bromodomain-containing protein 4 (P40337 whole entry, looked up, other chains not shown): as the sequence (P40337 whole entry partner) above

SMILES: CN1C[C@H](Nc2cnn(C)c(=O)c2Br)C[C@H](c2ccc(C(=O)N(C)CCCN(C)c3ccc(CCCOc4cccc5c4C(=O)N(C4CCC(=O)NC4=O)C5=O)cc3)cc2)C1 (mixture of isomers)
DC50 [1]: 1.5 nM | DC50 [2]: 3 nM

SMILES: Cc1ncsc1-c1ccc(CNC(=O)[C@@H]2C[C@@H](O)CN2C(=O)[C@@H](NC(=O)COCCCCOc2ccc(-c3ccc(N4C(=S)N(c5ccc(C#N)c(C(F)(F)F)c5)C(=O)C4(C)C)cc3)cc2)C(C)(C)C)cc1
DC50 [3]: 5 nM | Emax [4]: > 95%

SMILES: O=C1CCC(N2C(=O)c3cccc(NC(=O)CCCCCCCn4cc(COc5c(O)cc(O)c6c(=O)cc(-c7ccccc7)oc56)nn4)c3C2=O)C(=O)N1 (stereo not given)
IC50 [5]: 523 nM

SMILES: Nc1ncnc2c1c(-c1ccc(Oc3ccccc3)cc1)nn2C1CCN(CCOCCOCC(=O)Nc2ccc3c(c2)C(=O)N(C2CCC(=O)NC2=O)C3=O)CC1 (stereo not given)
DC50 [8]: 9.1 nM

SMILES: CC/C(=C(\c1ccc(O)cc1)c1ccc(OCCN(C)C(=O)COCCOCCOCCOc2cccc(C(=O)c3csc([C@@H]4CCCN4C(=O)[C@@H](NC(=O)[C@H](C)NC)C4CCCCC4)n3)c2)cc1)c1ccccc1
Activity [11]: 50%

SMILES: COc1cc2c(Oc3ccc(NC(=O)C4(C(=O)Nc5ccc(F)cc5)CC4)cc3F)ccnc2cc1OCCOCCOCCOc1cc(-c2scnc2C)ccc1CNC(=O)[C@@H]1C[C@@H](O)CN1C(=O)[C@H](C(C)C)N1Cc2ccccc2C1=O
DC50 [18]: 46.2 nM | Emax [19]: 99.4%

SMILES: CCC(C)(C)C(=O)C(=O)N1CCCCC1C(=O)O[C@H](CCc1ccc(OC)c(OC)c1)c1cccc(NC(=O)CCC(=O)NCCCCNC(=O)COc2cccc3c2C(=O)N(C2CCC(=O)NC2=O)C3=O)c1 (stereo not given in full)
DC50 [20]: 10 nM

Further lines, results first:

DC50 [6]: < 5 nM | DC50 [7]: < 1 nM
SMILES: Cc1ncsc1-c1ccc([C@H](C)NC(=O)[C@@H]2C[C@@H](O)CN2C(=O)[C@@H](NC(=O)COCCCOCCNC(=O)C[C@@H]2N=C(c3ccc(Cl)cc3)c3c(sc(C)c3C)-n3c(C)nnc32)C(C)(C)C)cc1

DC50 [9]: 7.16 nM | Emax [10]: 97.4%
SMILES: COc1cc2c(Oc3ccc(NC(=O)C4(C(=O)Nc5ccc(F)cc5)CC4)cc3F)ccnc2cc1OCCCCOCCCCOCC(=O)N[C@H](C(=O)N1C[C@H](O)C[C@H]1C(=O)NCc1ccc(-c2scnc2C)cc1)C(C)(C)C

DC50 [12]: < 3 nM | DC50 [13]: 10 nM | DC50 [14]: 10 nM
SMILES: Cc1ncsc1-c1ccc(CNC(=O)[C@@H]2[C@@H](F)[C@@H](O)CN2C(=O)[C@@H](NC(=O)COCCOCCOCCNC(=O)C[C@@H]2N=C(c3ccc(Cl)cc3)c3c(sc(C)c3C)-n3c(C)nnc32)C(C)(C)C)cc1

Emax [15]: > 95% | DC50 [16]: 1.4 nM | IC50 [17]: 656 nM
SMILES: Cc1ncsc1-c1ccc(CNC(=O)[C@@H]2C[C@@H](O)CN2C(=O)[C@@H](NC(=O)COCCOCCOCCOCCOc2cc3nccc(Nc4ccc5scnc5c4)c3cc2S(=O)(=O)C(C)(C)C)C(C)(C)C)cc1
